This assay has as its system Prostaglandin E2 (PGE2). Kind of assay: Serum Prostaglandin E2 after 6 weeks subcutaneous infusion of VD in Dahl/SS rats. The format is in vivo, rat. Conditions: 4% salt diet. From the text:
The pharmacodynamic effects of VD were investigated in a rat model. Forty male Dahl/SS rats were shipped to the animal facilities at PhysioGenix, Inc. (Milwaukee, Wis.). The rats were maintained on a low-salt diet and allowed to acclimate. After acclimation, animals had baseline parameters collected while on the low-salt diet. Animals were then randomly assigned to one of 4 groups (10 animals per group):
1. Vehicle Control; low-salt diet, n=10 2. Vehicle Control; 4% salt diet, n=10 3. Vessel dilator, 100 ng/kg/min infusion of VD, 4% salt diet, n=10 4. Vessel dilator, 300 ng/kg/min infusion of VD, 4% salt diet, n=10
Lyophilized VD peptide (Bachem) was reconstituted in a Tris buffer having the same composition as the Tris buffer of Example 1. The vehicle control groups were infused with a citrate-mannitol-saline buffer (0.66 mg/mL citric acid, 6.43 mg/mL sodium citrate, 40 mg/mL mannitol, 9 mg/mL NaCl). The animals were on a Teklad 7034 (low-salt) diet or Dyets AIN-76A 4% salt diet, as indicated, throughout a 6 week course of the study and had free access to water. […]
Alzet® minipumps (Durect, Corp.) were surgically implanted on Days 1, 15, and 29 of the study to maintain continuous vehicle or drug dispensing at the desired dose for a total period of 6 weeks. At the end of 6 weeks, the serum content of Prostaglandin E2 (PGE2) was measured.

The values that follow come from patent publication US20150038418A1, “NATRIURETIC PEPTIDE COMPOSITIONS AND METHODS OF PREPARATION” (MEDTRONIC, INC., priority 2011, published 2015).

On to “VD: Vessel Dilator, ANP prohormone a.a. 31-67, EVVPPQVLSEPNEEAGAALSPLPEVPPWTGEVSPAQR (SEQ ID No. 4) (listed as Homo sapiens)”, for which the “PGE2 concentration in serum versus control groups” value is reported as “similar” (SQ infusion 100 ng/kg·min) and “significantly higher than for any of the other 3 groups” (SQ infusion 300 ng/kg·min, p<0.05).
